Blank lines part the entries; values can stand above or below the compound they belong to.
What was measured:
[1] = Henry solubility constant Hcp at 293 K (mol/(m3 Pa))
[2] = Henry solubility constant Hcp at 298.15 K (mol/(m3 Pa))
[3] = reference: Wolfenden and Williams (1983)
[4] = reference: De Maagd et al. (1998)
[5] = reference: Amoore and Buttery (1978)
[6] = reference: Wen and Muccitelli (1979)
[7] = reference: Cetin and Odabasi (2005)
[8] = reference: Dohányosová et al. (2004)
[9] = reference: Souchon et al. (2004)
[10] = reference: Warner et al. (1980)
[11] = reference: Perlinger et al. (1993)

SMILES: CCCC(=O)OO[N+](=O)[O-] [nitro butaneperoxoate]
Henry solubility constant Hcp at 293 K ([1]; reference: Kames and Schurath (1995)): 0.023

SMILES: OBr [hypobromous acid]
Henry solubility constant Hcp at 293 K ([1]; reference: Blatchley et al. (1992)): > 19
Henry solubility constant Hcp at 293 K ([1]; reference: McCoy et al. (1990)): 19

SMILES: CCCOP(=O)(OCCC)OCCC [tripropyl phosphate]
Henry solubility constant Hcp at 293 K [1, 3]: 15

SMILES: CCOP(=O)(OCC)OCC [triethylphosphate]
Henry solubility constant Hcp at 293 K [1, 3]: 270

SMILES: c1ccc2c(c1)-c1cccc3cccc-2c13 [benzo[jk]fluorene]
Henry solubility constant Hcp at 293 K [1, 4]: 0.91

SMILES: Cc1ccc2ccccc2c1 [2-methylnaphthalene]
Henry solubility constant Hcp at 293 K [1, 4]: 0.022

SMILES: CCOP(=S)(OCC)Oc1nc(Cl)c(Cl)cc1Cl [chlorpyrifos]
Henry solubility constant Hcp at 293 K ([1]; reference: Rice et al. (1997b)): 3.1

Henry solubility constant Hcp ([2]; reference: Kim et al. (2008)): 2100
Henry solubility constant Hcp ([2]; reference: Nguyen (2013)): 1400
SMILES: CNCCCN [N-methyl-1,3-propanediamine]

Henry solubility constant Hcp [2, 5]: 0.01
SMILES: CC(C)COC(=O)C(C)C [2-methylpropyl 2-methylpropanoate]

Henry solubility constant Hcp ([2]; reference: Kish et al. (2013)): 0.4
SMILES: CCC(C)N (centres undefined) [2-butanamine]

SMILES: O=C(O)C(F)(F)C(F)(F)C(F)(F)C(F)(F)C(F)(F)C(F)(F)C(F)(F)F [pentadecafluorooctanoic acid]
Henry solubility constant Hcp ([2]; reference: Kutsuna and Hori (2008b)): 0.049
Henry solubility constant Hcp ([2]; reference: Kwan (2001)): 2.8
Henry solubility constant Hcp ([2]; reference: Li et al. (2007)): 0.4

Henry solubility constant Hcp ([2]; reference: Copolovici and Niinemets (2005)): 0.00029
Henry solubility constant Hcp ([2]; reference: Schuhfried et al. (2015)): 0.00038
SMILES: CC1=CC=C(C(C)C)CC1 [1-methyl-4-(1-methylethyl)-1,3-cyclohexadiene]

Henry solubility constant Hcp ([2]; reference: Park et al. (1982)): 1.2e-06
Henry solubility constant Hcp ([2]; reference: Scharlin and Battino (1994)): 1.3e-06
Henry solubility constant Hcp [2, 6]: 1.2e-06
SMILES: FC1(F)C(F)(F)C(F)(F)C1(F)F [octafluorocyclobutane]

Henry solubility constant Hcp ([2]; reference: Xu and Kropscott (2014)): 3.4e-07
SMILES: C[Si](C)(C)O[Si](C)(C)O[Si](C)(C)C [octamethyltrisiloxane]

Henry solubility constant Hcp ([2]; reference: Kwan (2001)): 0.67
SMILES: O=C(O)C(F)(F)C(F)(F)C(F)(F)C(F)(F)F [perfluoropentanoic acid]

SMILES: ClC1=C(Cl)C2(Cl)C3C(Cl)C(Cl)C(Cl)C3C1(Cl)C2(Cl)Cl (stereo not drawn) [trans-nonachlor]
Henry solubility constant Hcp ([2]; reference: Jantunen and Bidleman (2006)): 0.031

Henry solubility constant Hcp ([2]; reference: Thomas et al. (1998)): 0.018
SMILES: [O][N+](=O)[O-] [nitrogen trioxide]

SMILES: CNC(=O)Oc1cccc2c1OC(C)(C)C2 [carbofuran]
Henry solubility constant Hcp ([2]; reference: Mabury and Crosby (1996)): > 99

Henry solubility constant Hcp ([2]; reference: Keßel et al. (2017)): 0.011
SMILES: O=C=C=C=O [carbon suboxide]

Henry solubility constant Hcp ([2]; reference: Jönsson et al. (1982)): 5.9e-06
Henry solubility constant Hcp ([2]; reference: Park et al. (1997)): 7.4e-06
Henry solubility constant Hcp ([2]; reference: Tsonopoulos and Wilson (1983)): 6.7e-06
SMILES: CCCCCC [hexane]

SMILES: Brc1cc(Br)c(Oc2cc(Br)c(Br)cc2Br)c(Br)c1 [2,2',4,4',5,6'-hexabromodiphenyl ether]
Henry solubility constant Hcp [2, 7]: 7.3
Henry solubility constant Hcp ([2]; reference: Long et al. (2017)): 7.1

Henry solubility constant Hcp [2, 8]: 2.4e-06
SMILES: CC(C)CCC(C)C [2,5-dimethylhexane]

Henry solubility constant Hcp [2, 5]: 1.6
SMILES: C1=NCCC1 [1-pyrroline]

Henry solubility constant Hcp ([2]; reference: Khan and Brimblecombe (1992)): 13
Henry solubility constant Hcp ([2]; reference: Khan et al. (1995)): 13
Henry solubility constant Hcp ([2]; reference: Kim and Kim (2016)): 9.9
Henry solubility constant Hcp ([2]; reference: von Hartungen et al. (2004)): 7.5
SMILES: CCCCCC(=O)O [hexanoic acid]

SMILES: FC(F)=CCl [2-chloro-1,1-difluoroethene]
Henry solubility constant Hcp ([2]; reference: Maaßen (1995)): 0.00017
Henry solubility constant Hcp ([2]; reference: Reichl (1995)): 0.00017

Henry solubility constant Hcp ([2]; reference: Gupta et al. (2000)): 0.39
Henry solubility constant Hcp ([2]; reference: Lei et al. (2007)): 0.51
Henry solubility constant Hcp ([2]; reference: Shunthirasingham et al. (2013)): 0.57
Henry solubility constant Hcp [2, 9]: 0.38
SMILES: CCCCCCO [1-hexanol]

SMILES: FC(Cl)C(F)(F)F (centres undefined) [1-chloro-1,2,2,2-tetrafluoroethane]
Henry solubility constant Hcp ([2]; reference: Kutsuna (2013)): 0.00011
Henry solubility constant Hcp ([2]; reference: Maaßen (1995)): 0.0001
Henry solubility constant Hcp ([2]; reference: Reichl (1995)): 0.00011

SMILES: N#Cc1c(Cl)cccc1Cl [2,6-dichlorobenzenenitrile]
Henry solubility constant Hcp ([2]; reference: Schoene and Steinhanses (1985)): 0.48

Henry solubility constant Hcp ([2]; reference: Hawthorne et al. (1985)): 0.99
SMILES: Cc1ccnc(C)c1 [2,4-dimethylpyridine]

Henry solubility constant Hcp ([2]; reference: Ondo and Dohnal (2007)): 0.063
SMILES: COCOC [dimethoxymethane]

Henry solubility constant Hcp [2, 8]: 2.7e-05
SMILES: C[C@@H]1CCCC[C@@H]1C [cis-1,2-dimethylcyclohexane]

SMILES: Brc1ccc(Oc2ccc(Br)cc2Br)cc1 [2,4,4'-tribromodiphenyl ether]
Henry solubility constant Hcp [2, 7]: 0.18
Henry solubility constant Hcp ([2]; reference: Charles and Destaillats (2005)): 0.12
Henry solubility constant Hcp ([2]; reference: Long et al. (2017)): 0.16

Henry solubility constant Hcp ([2]; reference: Roberts and Pollien (1997)): 0.058
SMILES: CCCCCC/C=C/C=O [(E)-2-nonenal]

SMILES: CC(Cl)CCl (centres undefined) [1,2-dichloropropane]
Henry solubility constant Hcp ([2]; reference: Bissonette et al. (1990)): 0.003
Henry solubility constant Hcp ([2]; reference: Bobadilla et al. (2003)): 0.0042
Henry solubility constant Hcp [2, 10]: 0.0035

SMILES: OCC(O)CO [1,2,3-propanetriol]
Henry solubility constant Hcp ([2]; reference: Butler and Ramchandani (1935)): 580

Henry solubility constant Hcp [2, 8]: 1.6e-05
SMILES: C[C@@H]1CCCC[C@H]1C (relative stereo) [trans-1,2-dimethylcyclohexane]

SMILES: CS [methanethiol]
Henry solubility constant Hcp ([2]; reference: De Bruyn et al. (1995b)): 0.002
Henry solubility constant Hcp ([2]; reference: Hine and Weimar (1965)): 0.0033

SMILES: O=S(=O)(F)F [sulfuryl fluoride]
Henry solubility constant Hcp ([2]; reference: Cady and Misra (1974)): 8.9e-05

Henry solubility constant Hcp ([2]; reference: Ashton et al. (1968)): 1.4e-05
Henry solubility constant Hcp ([2]; reference: Cosgrove and Walkley (1981)): 1.4e-05
Henry solubility constant Hcp ([2]; reference: Crovetto et al. (1982)): 1.4e-05
Henry solubility constant Hcp ([2]; reference: Friedman (1954)): 1.4e-05
Henry solubility constant Hcp ([2]; reference: Krause and Benson (1989)): 1.4e-05
Henry solubility constant Hcp ([2]; reference: Lannung (1930)): 1.4e-05
Henry solubility constant Hcp ([2]; reference: Morrison and Johnstone (1954)): 1.3e-05
Henry solubility constant Hcp ([2]; reference: Murray and Riley (1970)): 1.4e-05
Henry solubility constant Hcp ([2]; reference: Park et al. (1982)): 1.4e-05
Henry solubility constant Hcp ([2]; reference: Potter II and Clynne (1978)): 1.4e-05
Henry solubility constant Hcp ([2]; reference: Rettich et al. (1992)): 1.4e-05
Henry solubility constant Hcp ([2]; reference: Shoor et al. (1969)): 1.4e-05
Henry solubility constant Hcp ([2]; reference: Winkler (1906)): 1.5e-05
Henry solubility constant Hcp ([2]; reference: von Antropoff (1910)): 1.6e-05
SMILES: [Ar] [argon]

SMILES: CC(F)(F)Cl [1-chloro-1,1-difluoroethane]
Henry solubility constant Hcp ([2]; reference: Chang and Criddle (1995)): 0.00015
Henry solubility constant Hcp ([2]; reference: Kutsuna (2013)): 0.00015
Henry solubility constant Hcp ([2]; reference: Maaßen (1995)): 0.00014
Henry solubility constant Hcp ([2]; reference: Reichl (1995)): 0.00014

SMILES: Cc1ccccc1O [1-hydroxy-2-methylbenzene]
Henry solubility constant Hcp ([2]; reference: Dohnal and Fenclová (1995)): 5.6
Henry solubility constant Hcp ([2]; reference: Feigenbrugel et al. (2004b)): 4.2
Henry solubility constant Hcp ([2]; reference: Harrison et al. (2002)): 11
Henry solubility constant Hcp ([2]; reference: Parsons et al. (1972)): 8.2

SMILES: FC(F)(F)C(F)(F)F [hexafluoroethane]
Henry solubility constant Hcp ([2]; reference: Bonifácio et al. (2001)): 6.5e-07
Henry solubility constant Hcp ([2]; reference: Park et al. (1982)): 5.3e-07
Henry solubility constant Hcp [2, 6]: 5.6e-07

Henry solubility constant Hcp ([2]; reference: Hovorka et al. (2019)): 0.052
SMILES: CCC(=O)C(C)C [2-methyl-3-pentanone]

Henry solubility constant Hcp ([2]; reference: Butler et al. (1935)): 0.67
Henry solubility constant Hcp ([2]; reference: Fenclová et al. (2010)): 0.71
SMILES: CCCC(C)O (centres undefined) [2-pentanol]

Henry solubility constant Hcp ([2]; reference: Aprea et al. (2007)): 0.014
Henry solubility constant Hcp ([2]; reference: Landy et al. (1995)): 0.0094
Henry solubility constant Hcp ([2]; reference: Landy et al. (1996)): 0.016
SMILES: CCCCCC(=O)OCC [ethyl hexanoate]

SMILES: CCCCOCCOC(C)=O [2-butoxyethyl ethanoate]
Henry solubility constant Hcp ([2]; reference: Kim et al. (2000)): 1.8

Henry solubility constant Hcp ([2]; reference: Gibbs et al. (1991)): 2700
SMILES: CCCCNC(C)=O [N-butylacetamide]

SMILES: O=C(O)C(Br)(Br)Br [tribromoethanoic acid]
Henry solubility constant Hcp ([2]; reference: Bowden et al. (1998a)): 2900

SMILES: ClC1C(Cl)C(Cl)C(Cl)C(Cl)C1Cl (stereo not drawn) [β-1,2,3,4,5,6-hexachlorocyclohexane]
Henry solubility constant Hcp ([2]; reference: Sahsuvar et al. (2003)): 28

Henry solubility constant Hcp ([2]; reference: Fichan et al. (1999)): 0.023
SMILES: CC1(C)C2CC3OC3(C)C1C2 (centres undefined) [2,7,7-trimethyl-3-oxatricyclo[4.1.1.0(2,4)]octane]

Henry solubility constant Hcp [2, 11]: 0.00086
SMILES: CCCc1ccccc1 [propylbenzene]

Henry solubility constant Hcp ([2]; reference: Allen et al. (1998)): 0.97
Henry solubility constant Hcp ([2]; reference: Betterton (1991)): 1.1
SMILES: CC(=O)c1ccccc1 [1-phenylethanone]

SMILES: [CH3][Hg][CH3] [dimethylmercury]
Henry solubility constant Hcp ([2]; reference: Talmi and Mesmer (1975)): 0.0013

SMILES: [Hg] [mercury]
Henry solubility constant Hcp ([2]; reference: Andersson et al. (2008)): 0.0013
Henry solubility constant Hcp ([2]; reference: Sanemasa (1975)): 0.0013

SMILES: CCCCc1ccccc1 [butylbenzene]
Henry solubility constant Hcp [2, 11]: 0.00062

Henry solubility constant Hcp [2, 9]: 0.026
SMILES: CCCC(=O)SC [S-methyl butanethioate]

SMILES: O=[N+]([O-])c1ccccc1 [nitrobenzene]
Henry solubility constant Hcp [2, 10]: 0.41

SMILES: CCCS [1-propanethiol]
Henry solubility constant Hcp ([2]; reference: Coquelet and Richon (2005)): 0.0017
Henry solubility constant Hcp ([2]; reference: Haimi et al. (2006)): 0.0018
